# Results as given in ChEMBL document CHEMBL1201862, “PubChem BioAssay data set” (2004).
#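 How tested: cells in 96-well plates exposed to compound for 48 hours at five concentrations. Abbreviation: GI50, concentration required for 50% inhibition of growth.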 Calls of active or inactive are those of the source. Cut-off read from the data, not from the text of the source: active = GI50 up to about 1.1 µM and inactive = higher.
# What was measured:
# Assay in all cases: growth of human tumour cells (NCI), 48 h
# OVCAR-5 = tested on: OVCAR-5
# K562 = tested on: K562
# SW-620 = tested on: SW-620
# SK-OV-3 = tested on: SK-OV-3
# OVCAR-3 = tested on: OVCAR-3
# HT-29 = tested on: HT-29
# OVCAR-8 = tested on: OVCAR-8
# CAKI-1 = tested on: CAKI-1
# UACC-257 = tested on: UACC-257
# HCC 2998 = tested on: HCC 2998
# RPMI-8226 = tested on: RPMI-8226
# EKVX = tested on: EKVX
# SF-268 = tested on: SF-268
# SNB-19 = tested on: SNB-19
# NCI-H522 = tested on: NCI-H522
# HOP-92 = tested on: HOP-92
# SR = tested on: SR
Structure (SMILES),GI50 (OVCAR-5),GI50 (K562),GI50 (SW-620),GI50 (SK-OV-3),GI50 (OVCAR-3),GI50 (HT-29),GI50 (OVCAR-8),GI50 (CAKI-1),GI50 (UACC-257),GI50 (HCC 2998),GI50 (RPMI-8226),GI50 (EKVX),GI50 (SF-268),GI50 (SNB-19),GI50 (NCI-H522),GI50 (HOP-92),GI50 (SR)
CC(C)(C)c1ccccc1NS(=O)(=O)c1ccccc1,> 100 µM (inactive),44.9 µM (inactive),> 100 µM (inactive),> 100 µM (inactive),71.4 µM (inactive),66.7 µM (inactive),> 100 µM (inactive),64 µM (inactive),45.1 µM (inactive),> 100 µM (inactive),60.8 µM (inactive),> 100 µM (inactive),–,–,–,–,–
O=C1c2c(c3c4ccccc4[nH]c3c3[nH]c4ccccc4c23)C(=O)N1Cc1ccccc1,2.62 µM (inactive),3.05 µM (inactive),3.7 µM (inactive),2.96 µM (inactive),2.81 µM (inactive),4.04 µM (inactive),4.47 µM (inactive),3.65 µM (inactive),3.75 µM (inactive),4.27 µM (inactive),2.36 µM (inactive),5.93 µM (inactive),3.01 µM (inactive),2.8 µM (inactive),1.77 µM (inactive),2.43 µM (inactive),–
NS(=O)(=O)c1ccc(NC(=O)c2cccn3c(=O)c4ccccc4nc23)cc1,–,> 100 µM (inactive),> 100 µM (inactive),> 100 µM (inactive),> 100 µM (inactive),> 100 µM (inactive),> 100 µM (inactive),> 100 µM (inactive),> 100 µM (inactive),–,> 100 µM (inactive),> 100 µM (inactive),> 100 µM (inactive),> 100 µM (inactive),> 100 µM (inactive),> 100 µM (inactive),79.8 µM (inactive)
N=C(c1ccccc1)N1CCCCC1,> 100 µM (inactive),–,> 100 µM (inactive),–,–,> 100 µM (inactive),> 100 µM (inactive),> 100 µM (inactive),> 100 µM (inactive),> 100 µM (inactive),–,> 100 µM (inactive),> 100 µM (inactive),> 100 µM (inactive),> 100 µM (inactive),< 0.01 µM (active),> 100 µM (inactive)
COc1ccc(C2S/C(=C\c3cccc(O)c3)C(=O)N2NC(=O)Cc2ccccc2)cc1 (stereo not drawn),> 100 µM (inactive),> 100 µM (inactive),> 100 µM (inactive),> 100 µM (inactive),–,> 100 µM (inactive),> 100 µM (inactive),> 100 µM (inactive),> 100 µM (inactive),–,> 100 µM (inactive),–,> 100 µM (inactive),–,> 100 µM (inactive),> 100 µM (inactive),> 100 µM (inactive)
CCCCCC/C=C1\CCC(CN2CCCC2)C1=O (stereo not drawn),18.3 µM (inactive),3.87 µM (inactive),> 28.2 µM (inactive),18.7 µM (inactive),13.9 µM (inactive),13.9 µM (inactive),17.2 µM (inactive),> 38.5 µM (inactive),17.9 µM (inactive),17.5 µM (inactive),2.01 µM (inactive),18.5 µM (inactive),18.5 µM (inactive),> 38.5 µM (inactive),1.56 µM (inactive),16.7 µM (inactive),2.99 µM (inactive)
N/N=C1\c2ccccc2C2/C(=N\N)c3ccccc3C12 (stereo not drawn),> 100 µM (inactive),> 100 µM (inactive),> 100 µM (inactive),> 100 µM (inactive),> 100 µM (inactive),> 100 µM (inactive),> 100 µM (inactive),> 100 µM (inactive),> 100 µM (inactive),> 100 µM (inactive),> 100 µM (inactive),> 100 µM (inactive),> 100 µM (inactive),> 100 µM (inactive),> 100 µM (inactive),> 100 µM (inactive),–
N#CCCN(CCC#N)c1ccc(/C=C2\N=C(COc3ccc(Cl)cc3Cl)OC2=O)cc1,> 100 µM (inactive),> 100 µM (inactive),> 100 µM (inactive),> 100 µM (inactive),> 100 µM (inactive),> 100 µM (inactive),> 100 µM (inactive),> 100 µM (inactive),> 100 µM (inactive),> 100 µM (inactive),> 100 µM (inactive),> 100 µM (inactive),> 100 µM (inactive),> 100 µM (inactive),29.9 µM (inactive),–,–
C[C@]12CCC(=O)C[C@H]1CCC(O)[C@@H]2Br (stereo partly drawn),> 100 µM (inactive),> 100 µM (inactive),> 100 µM (inactive),> 100 µM (inactive),> 100 µM (inactive),> 100 µM (inactive),> 100 µM (inactive),> 100 µM (inactive),> 100 µM (inactive),> 100 µM (inactive),> 100 µM (inactive),–,> 100 µM (inactive),> 100 µM (inactive),> 100 µM (inactive),> 100 µM (inactive),> 100 µM (inactive)
CC1(C)C2CCC13C(=O)C1OC3(C2)C2C(=O)N(c3ccccc3)C(=O)C12 (stereo not drawn),> 100 µM (inactive),> 100 µM (inactive),> 100 µM (inactive),> 100 µM (inactive),> 100 µM (inactive),51.4 µM (inactive),> 100 µM (inactive),> 100 µM (inactive),> 100 µM (inactive),> 100 µM (inactive),> 100 µM (inactive),> 100 µM (inactive),> 100 µM (inactive),> 100 µM (inactive),20.1 µM (inactive),–,–
C[C@@H]1C[C@]2(C[C@@H](C)C3[C@@H](CC4(C)[C@@H]5CCC6C(C)(C)OC(=O)C=C[C@]67C[C@@]5(CC[C@]34C)OO7)O2)OC1=O (stereo partly drawn),> 100 µM (inactive),28.1 µM (inactive),84.3 µM (inactive),43.6 µM (inactive),24.1 µM (inactive),> 100 µM (inactive),67.5 µM (inactive),–,55.2 µM (inactive),> 100 µM (inactive),> 100 µM (inactive),–,–,49.4 µM (inactive),29.6 µM (inactive),–,> 100 µM (inactive)
COc1ccc(O)cc1C=O,> 100 µM (inactive),33.9 µM (inactive),47.5 µM (inactive),> 100 µM (inactive),> 100 µM (inactive),> 100 µM (inactive),> 100 µM (inactive),–,48.1 µM (inactive),> 100 µM (inactive),60.1 µM (inactive),> 100 µM (inactive),> 100 µM (inactive),> 100 µM (inactive),–,> 100 µM (inactive),18.8 µM (inactive)
O=C1[C@H]2ON(c3ccccc3)C(c3ccccc3Cl)[C@H]2C(=O)N1c1ccc(Cc2ccc(N3C(=O)[C@@H]4ON(c5ccccc5)C(c5ccccc5Cl)[C@@H]4C3=O)cc2)cc1 (stereo partly drawn),> 100 µM (inactive),> 100 µM (inactive),> 100 µM (inactive),> 100 µM (inactive),> 100 µM (inactive),> 100 µM (inactive),> 100 µM (inactive),> 100 µM (inactive),> 100 µM (inactive),> 100 µM (inactive),> 100 µM (inactive),> 100 µM (inactive),> 100 µM (inactive),> 100 µM (inactive),> 100 µM (inactive),71 µM (inactive),> 100 µM (inactive)
COC1=C(C)C(=O)c2c(cc3c(c2O)C(C)(CCC=C(C)C)C(C)O3)C1=O (stereo not drawn),> 100 µM (inactive),> 54.8 µM (inactive),> 100 µM (inactive),> 100 µM (inactive),> 100 µM (inactive),37 µM (inactive),> 100 µM (inactive),> 100 µM (inactive),> 72.9 µM (inactive),42.1 µM (inactive),> 100 µM (inactive),> 100 µM (inactive),> 100 µM (inactive),19.2 µM (inactive),> 100 µM (inactive),> 100 µM (inactive),> 85.7 µM (inactive)
Cn1ncnc1CCc1ccccc1,> 100 µM (inactive),> 100 µM (inactive),> 100 µM (inactive),> 100 µM (inactive),> 100 µM (inactive),> 100 µM (inactive),> 100 µM (inactive),> 100 µM (inactive),> 100 µM (inactive),–,> 100 µM (inactive),–,> 100 µM (inactive),–,> 100 µM (inactive),> 100 µM (inactive),> 100 µM (inactive)
COC(=O)C(=O)C(C(=O)C=C(C)C)C(=O)C(=O)Nc1ccc(Cl)cc1C (stereo not drawn),> 100 µM (inactive),71.8 µM (inactive),–,> 100 µM (inactive),> 100 µM (inactive),> 100 µM (inactive),> 100 µM (inactive),> 100 µM (inactive),> 100 µM (inactive),> 100 µM (inactive),70 µM (inactive),> 100 µM (inactive),> 100 µM (inactive),> 100 µM (inactive),69.2 µM (inactive),> 100 µM (inactive),23.3 µM (inactive)
COC(=O)CC[C@]12C[C@]13CC[C@]1(C)C4C(C)C[C@]5(CC(C)C(=O)O5)OC4CC1(C)C3CCC2C(C)(C)O (stereo partly drawn),> 100 µM (inactive),49.9 µM (inactive),56 µM (inactive),> 100 µM (inactive),76 µM (inactive),> 100 µM (inactive),41.7 µM (inactive),–,67.1 µM (inactive),51.5 µM (inactive),25.4 µM (inactive),> 100 µM (inactive),81.1 µM (inactive),51.2 µM (inactive),62.1 µM (inactive),23.7 µM (inactive),42.2 µM (inactive)
Nc1nc(-c2ccco2)cc(-c2ccco2)n1,> 100 µM (inactive),> 100 µM (inactive),> 100 µM (inactive),–,> 100 µM (inactive),> 100 µM (inactive),> 100 µM (inactive),–,–,–,> 100 µM (inactive),> 100 µM (inactive),> 100 µM (inactive),41.8 µM (inactive),> 100 µM (inactive),–,> 100 µM (inactive)
